Measured values as given in patent publication US3939263A, “Methods of combatting insects and acarina using oxygenated derivatives of S-(tert-bulythio)methyl O,O-diethyl phosphorodithioate and phosphorothioate” (priority 1974, dated 1976).

Key:
Cotton Boll Weevil = assay: Cotton Boll Weevil, treated cotton cotyledon, 2-day mortality; assay type: in vivo, Anthonomus grandis Boheman; settings: 48 h, 2 days, read-out: % Kill, Cotton Boll Weevil
Experimental: Cotton Boll Weevil -- Anthonomus grandis Boheman
A cotton plant with cotyledons expanded is dipped for 3 seconds with agitation in 35/65% aqueous acetone mixture containing 100 ppm. of test compound and set in the hood to dry. One cotyledon is removed from the plant and placed in a 4-inch petri dish containing a moist filter paper on the bottom and 10 adult weevils. After 2 days at 80°F., and 50% r.h., mortality counts are made, prodding each insect to distinguish dead ones from those "playing dead."

Two-Spotted Spider Mite = assay: Two-Spotted Spider Mite, dipped infested lima bean plants; assay type: in vivo, Tetranychus urticae (Koch); settings: Tetranychus urticae, read-out: % Kill, Two-Spotted Spider Mite
Experimental: Two-Spotted Spider Mite -- Tetranychus urticae (Koch)
Sieva lima bean plants, with primary leaves 3 to 4 inches long, are infested with about 100 adult mites per leaf 4 hours before use in this test, in order to allow egg-laying before treatment. The infested plants are dipped for 3 seconds with agitation into a 35/65% water/acetone mixture containing 1000 ppm. of test compound and the plants set in the hood to dry. After 2 days at 80°F., and 50% r.h., the adult mite mortality is estimated on one leaf under a 10X stereoscopic microscope. The other leaf is left on the plant an additional 5 days and then examined at 10X power to estimate the kill of eggs and of newly hatched nymphs, giving a measure of ovicidal and residual action, respectively.

Southern Armyworm = assay: Soil Systemic Insecticide test on corn, Southern Armyworm; assay type: in vivo, Spodoptera eridania Cramer; settings: Spodoptera eridania, 48 h; 100 ppm in soil; corn foliage after three weeks; 2 days; read-out: % Kill, Systemic Insecticide, Southern Armyworm
Experimental: Soil Systemic Insecticide Tests
Corn and cotton seed (three seeds each) are planted in treated soil (containing about 100 ppm. of the compound). Thirty milliliters of treated soil are placed in a peat container 5 × 5 × 5.5 cm., and three seeds each of corn and cotton planted. The containers are filled with an additional 30 ml. of treated soil. The treatments are removed to the greenhouse maintained about 26°C. without supplementary light. Water is supplied as needed. After three weeks, foliage of the corn is clipped and placed in glass petri dishes (90 mm. × 10 mm.) with moist filter (9 cm. Whatman No. 1) paper and ten third-instar southern armyworm (Spodoptera eridania Cramer) larvae about 8 mm. long. The dishes are covered and placed in the holding room with constant light at 26.7°C. and 60% r.h. for 2 days, when mortality counts are made.

Malaria Mosquito = Malaria Mosquito adult test, treated slide; assay type: in vivo, Anopheles quadrimaculatus Say; settings: Anopheles quadrimaculatus, 24 h, adults, one day, read-out: % Kill, Malaria Mosquito
Experimental: Malaria Mosquito -- Anopheles quadrimaculatus Say -- Adult Test
Ten ppm. acetone solutions of test compounds are poured into wide-mouth 2-ounce jars each containing a microscope slide. The slides are removed from the test solution with forceps and laid horizontally to dry on a wide-mouth 4-ounce bottle. When dry, they are placed in the same 4-ounce bottle and 10 4-to 5-day-old mosquitoes of mixed sexes are added to each bottle. A piece of cotton gauze held on by an elastic band serves as a lid and wad of cotton soaked in 10% honey solution serves as food. Mortality counts are made after one day at 80°F., 50% r.h.

[1] = test system: Boophilus microplus ticks; assay: Tick larvae, simulated spray in pipette; assay type: in vivo; settings: Rhipicephalus microplus, 48 hours, read-out: % Kill, Ticks
Experimental: Ticks -- Boophilus microplus
In these tests, 20 larvae are enclosed in a pipette sealed at one end with a gauze material. A 10% acetone/water solution with the drug in it is then sucked through the pipette with a vacuum hose, thus simulating a spray system. The ticks are then held for 48 hours and mortality is determined.

[2] = Mammalian toxicity, LD50 in mice; assay type: in vivo, male albino mice of the CFI strain; settings: mouse, in vivo; male albino mice, corn oil, 0.5 ml./kg.
Experimental: (§1) For the tests reported in Table II, 20 male albino mice of the CFI strain, weighing approximately 18 grams to 20 grams are selected. The phosphates are readied for administration by preparing a solution or dispersion in corn oil (Mazola), the concentration of which is adjusted so that the total volume of the dose is 0.5 ml./kg. in every case. The initial solution is prepared by deciding upon the maximum dosage in mg./kg. to be administered and preparing 10 ml. of this solution of such a concentration that the desired dosage in mg./kg. is delivered when 0.5 ml. of the solution is administered for 20 grams of mouse body weight. Serial dilutions differing by a factor of two are then prepared for each lower dosage level. LD50 stands for the lethal dose in mg./kg. which kills 50% of the mice.

mice = assay: Mammalian toxicity, LD50 in mice; assay type: in vivo, male albino mice of the CFI strain; settings: versus O,O-diethyl S-(tert-butylsulfinyl)methyl phosphorodithioate
Experimental: as §1

insects = assay: Insecticidal activity compared with art compound; assay type: in vivo; settings: versus O,O-diethyl S-(tert-butylsulfinyl)methyl phosphorodithioate

Row | SMILES | mortality at 100 ppm (Cotton Boll Weevil) [%] | mortality at 100 ppm (Two-Spotted Spider Mite) [%] | mortality at 1000 ppm (Two-Spotted Spider Mite) [%] | mortality at 100 ppm (Southern Armyworm) [%] | mortality at 1 ppm (Malaria Mosquito) [%] | mortality at 10 ppm (Malaria Mosquito) [%] | mortality at 33 ppm [1] [%] | LD50 [2] [mg/kg] | mortality at 100 ppm ([1]; 100 ppm) [%] | toxicity to mammals (mice) relative to art compound (mice) | insecticidal activity relative to art compound (insects)
1 | CCOP(=O)(OCC)SCS(=O)(=O)C(C)(C)C [O,O-diethyl S-(tert-butylsulfonyl)methyl Phosphorothioate] | 90 | 100 | 100 | 100 | 0 | 50 | 0 | 3.4 | – | – | –
2 | CCOP(=O)(OCC)SC[S+]([O-])C(C)(C)C (stereo not drawn) [O,O-diethyl S-(tert-butylsulfinyl)methyl Phosphorothioate] | 90 | 100 | 100 | 100 | 40 | 100 | – | 1.1 | 100 | – | –
3 | CCOP(=S)(OCC)SC[S+]([O-])C(C)(C)C (stereo not drawn) [O,O-diethyl S-(tert-butylsulfinyl)methyl phosphorodithioate, reference compound] | 100 | 100 | 100 | 100 | 0 | 80 | 0 | 3.4 | – | – | –
4 | CCOP(=S)(OCC)SCS(=O)(=O)C(C)(C)C [O,O-diethyl S-(tert-butylsulfonyl)methyl Phosphorodithioate] | 90 | 100 | 100 | 0 | 50 | 100 | – | 14 | – | much less toxic to mammals (mice) than the art compound | equal to, and in some cases superior to, this art compound
